Measured values as given in US20220305401A1, “EUTECTIC EXTRACTION OF SOLIDS” (Givaudan SA, priority 2019, published 2022).

Key:
[1] = assay type: physicochemical
From the text: To further improve the washing procedure that leads to a high carnosic acid content in the final extract and, concomitantly, a strong antioxidant activity, here we studied the effect of the addition of sodium chloride on the CA hydrosolubility.

[2] = Solubilization of disperse red 13 by urea:betaine aqueous solutions (absorbance at 525 nm); assay type: physicochemical; conditions: distilled water, room temperature
Description: The desired amounts of betaine and/or urea powders were dissolved in distilled water or phosphate buffer solution (PBS, 67 mM) at pH 7.0 to form a 100 mL solution.
The concentration of urea in the urea:betaine mixtures in water or PBS ranged from 0.025 to 8.3 M.
The solutions of urea and/or betaine in PBS were adjusted to provide a pH of 7.0 using concentrated HCl. The volume of added HCl was taken into account when calculating the final molar concentration of betaine and/or urea.
10 mL of the osmolyte solution was added to a vial containing 5 mg red disperse 13 in excess ([…], Sigma), then magnetically stirred (500 rpm) for 16 hours and filtrated (0.45 μm). The concentration of red disperse 13 in the filtrate is measured at 525 nm (Shimadzu UV-1800, Japan). […]
These liquid mixtures were mixed with an excess of disperse red 13 used as a hydrophobic probe to screen the solubilization properties of the solvents. It can be observed from FIG. 1 that the disperse red 13 absorbance increases exponentially 525 nm approx.) with increasing the deep eutectic concentration in water. […]

[3] = Saturation level of urea, betaine and urea:betaine mixtures in water; assay type: physicochemical
From the text: The concentrations of pure urea solution in water or PBS ranged from 0.025 to 10.1 M, the latter value corresponding to the saturation level of urea. Finally, the concentrations of pure betaine in water or PBS ranged from 0.025 to 5.4 M, this latter corresponding to the saturation level of betaine. In this Example, anhydrous urea:betaine (U:B) mixtures at different molar ratios were first prepared, then solubilized in distilled water at different concentrations ranging from 1.5 g/L to the saturation level which was 607, 813, 985, 957, 795, 741, and 633 g/L for the U:B ratios 1:0, 3:1, 2:1, 1:1, 1:2, 1:3, and 0:1, respectively.

water solubility [1]	hydrotropic behavior for disperse red 13 [2]	saturation level ([3]; distilled water)	saturation level ([3]; water or PBS)	SMILES
strongly reduced	–	–	–	CC(C)c1cc2c(c(O)c1O)[C@@]1(C(=O)O)CCCC(C)(C)[C@@H]1CC2 [CA, carnosic acid]
–	too modestly to be qualified as such	633 g/L	5.4 M	C[N+](C)(C)CC(=O)O [betaine]
–	displays a hydrotropic behavior	607 g/L	10.1 M	NC(N)=O [urea, Urea]
